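Interpolation was linear, between the two tested concentrations surrounding the appropriate level; five concentrations were tested over 48 hours in 96-well plates. GI50 = concentration required for 50% inhibition of growth. Definition used: TGI = concentration required for complete inhibition of growth.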
Assays:
Test in all cases: NCI anticancer screen, dose series, 48 h
RXF 393 renal = test system: RXF 393 renal
HCT-116 colon = test system: HCT-116 colon
SF-268 CNS = test system: SF-268 CNS
HT29 colon = test system: HT29 colon
OVCAR-8 ovarian = test system: OVCAR-8 ovarian
SNB-19 CNS = test system: SNB-19 CNS
NCI-H460 lung = test system: NCI-H460 lung
HS 578T breast = test system: HS 578T breast
RPMI-8226 leukemia = test system: RPMI-8226 leukemia
K-562 leukemia = test system: K-562 leukemia

Structure (SMILES) | GI50 (RXF 393 renal) | TGI (RXF 393 renal) | GI50 (HCT-116 colon) | TGI (HCT-116 colon) | GI50 (SF-268 CNS) | TGI (SF-268 CNS) | GI50 (HT29 colon) | TGI (HT29 colon) | GI50 (OVCAR-8 ovarian) | TGI (OVCAR-8 ovarian) | GI50 (SNB-19 CNS) | TGI (SNB-19 CNS) | GI50 (NCI-H460 lung) | TGI (NCI-H460 lung) | GI50 (HS 578T breast) | TGI (HS 578T breast) | GI50 (RPMI-8226 leukemia) | TGI (RPMI-8226 leukemia) | TGI (K-562 leukemia) | GI50 (K-562 leukemia)
COc1cc(NCCC2CCCCN2)c2ncccc2c1OC (stereo not given) | 22.8 µM | 38.5 µM | 1.94 µM | 3.7 µM | 14.2 µM | 41.8 µM | 13 µM | 33.6 µM | 6.49 µM | 59.2 µM | 18.7 µM | 42.3 µM | 10.5 µM | 24.8 µM | 4.34 µM | 31.1 µM | 10.1 µM | 50.8 µM |  | 
O=C(OCc1ccccc1)n1cccc1 |  | > 100 µM |  | > 100 µM |  | > 100 µM |  | > 100 µM |  | > 100 µM |  | > 100 µM |  | > 100 µM |  |  |  | > 100 µM | > 100 µM | 
Cn1cc(-c2nc(-c3cn(C)c4ncccc34)cs2)c2ccccc21 | 1.53 µM | 4.09 µM | 0.802 µM | 18.4 µM | 4.83 µM | 37.3 µM |  |  | 3.43 µM | > 100 µM | 3.68 µM | 25.2 µM | 0.858 µM | 15.9 µM | 4.14 µM | > 100 µM | 3.72 µM | > 100 µM | > 100 µM | 0.412 µM
C=C1C(C(=O)O)C1C(=O)O (stereo not given) |  | > 100 µM |  | > 100 µM |  | > 100 µM |  | > 100 µM |  | > 100 µM |  | > 100 µM |  | > 100 µM |  |  |  | > 100 µM | > 100 µM | 
CC(C)(C)OC1=C(OC(C)(C)C)C(O)(c2ccc(Cl)cc2)C1=O (stereo not given) |  | > 100 µM |  |  |  | > 100 µM |  | > 100 µM |  | > 100 µM |  | > 100 µM |  | > 100 µM |  |  |  | > 100 µM | > 100 µM | 
Cc1ccc(/C(=C/C=C(C#N)C#N)Sc2nc3ccccc3s2)cc1 | 3.78 µM | 13.8 µM | 2.47 µM | 6.3 µM | 5.81 µM | 22.1 µM |  |  | 4.35 µM | 65.6 µM | 14.8 µM | 34.1 µM | 18.3 µM | 75.3 µM | 9.86 µM | 56.1 µM |  |  | > 100 µM | 6.25 µM
CC[P+]1(c2ccccc2)CCCCC1 |  | > 100 µM |  | > 100 µM |  | > 100 µM |  | > 100 µM |  | > 100 µM |  | > 100 µM |  | > 100 µM |  |  |  | > 100 µM | > 100 µM | 
Oc1ccc(/C=N/NC(=S)Nc2cccnc2)nc1 |  | > 61.2 µM |  | > 100 µM |  | > 100 µM |  | > 100 µM |  | 12.6 µM |  | > 100 µM |  |  |  |  |  | 76.4 µM | > 23.1 µM | 
Cc1cn2c(/C=C3\C(=O)N(C)c4ccc(Cl)cc43)c(C)nc2s1 |  |  | 2.55 µM | 14.6 µM | 3.02 µM | > 100 µM | 1.9 µM | 12 µM | 5.5 µM | > 100 µM | 4.25 µM | 92.9 µM | 2.86 µM | 15.3 µM | 8.28 µM | > 100 µM | 2.84 µM | 9.4 µM |  | 
Oc1cc(O)c2c(c1)OC(c1ccc(O)c(O)c1)C(O)C2c1c(O)cc(O)c2c1OC(c1ccc(O)c(O)c1)C(O)C2 (stereo not given) |  | > 100 µM |  | > 100 µM |  | > 100 µM |  | > 100 µM |  | > 100 µM |  | > 100 µM |  | > 100 µM |  | > 100 µM |  | > 100 µM |  | 
O=C1C2C3C=C4c5ccccc5N(c5ccccc5)C4([C@@H]2C(=O)N1c1ccc(F)cc1)[C@H]1C(=O)N(c2ccc(F)cc2)C(=O)[C@@H]31 (stereo not given in full) |  | > 100 µM |  |  |  | > 100 µM |  |  |  | > 100 µM |  | > 100 µM |  |  |  |  |  | > 100 µM | > 100 µM | 
CCN(CC)CCCC(C)Nc1ccnc(/C=C/c2ccc(Cl)cc2)c1 (stereo not given) | 1.44 µM | 2.92 µM |  | 3.22 µM |  | 8.6 µM |  | 6.44 µM |  | 7.57 µM |  | 16.6 µM |  | 7.49 µM |  | 5.81 µM |  | 5.74 µM |  | 
N#CC(C#N)=C1CCC2C(=C(C#N)C#N)CCC12 (stereo not given) |  | > 100 µM |  | > 100 µM |  | > 100 µM |  | > 100 µM |  | > 100 µM |  | > 100 µM |  | > 100 µM |  |  |  | > 100 µM | > 100 µM | 
CCOC(=O)CCSC1=CC(=O)c2nc3ccccc3c3ccnc1c23 |  |  | 17.1 µM | 76.6 µM | 17.1 µM | 39.4 µM | 26.2 µM | 53.8 µM |  |  | 20.5 µM | 51.6 µM | 13.4 µM | 50.1 µM | 32.8 µM | > 100 µM | 9.55 µM | > 100 µM | > 100 µM | 26.9 µM
CSc1cc(C(C)(C)C)ccc1C(O)c1ccc(C(C)(C)C)cc1SC |  | 24.9 µM |  | 17.8 µM |  | 27.1 µM |  | 19.6 µM |  | 28.8 µM |  | 34.3 µM |  | 31.4 µM |  |  |  |  | 30.5 µM | 
C=CCC1C(=O)CC2(C)C(CC=C)C(=O)CC12C (stereo not given) |  |  |  | > 100 µM |  |  |  | > 100 µM |  | > 100 µM |  | > 100 µM |  | > 100 µM |  |  |  | > 100 µM | > 100 µM | 
N#CC1=C(c2ccccc2)OC2(N)OC(c3ccccc3)=C(C#N)C12C#N (stereo not given) |  | > 100 µM |  |  |  | > 100 µM |  | > 100 µM |  | > 100 µM |  | > 100 µM |  | > 100 µM |  |  |  | > 100 µM | > 100 µM | 
CC1OC(CC2C=CCc3c(O)c4c(c(O)c32)C(=O)c2ccccc2C4=O)CC(NC(=O)C(F)(F)F)C1O (stereo not given) |  | 7.77 µM |  | 11.4 µM |  | 22.2 µM |  | 40.5 µM |  | 15 µM |  | 18.7 µM |  | 24.1 µM |  |  |  | 28 µM | 20.6 µM | 
Cc1ccc(NC(=O)CCC(=O)C2Cc3ccccc3C2=O)cc1C (stereo not given) |  | > 100 µM |  | > 100 µM |  | > 100 µM |  | > 100 µM |  | > 100 µM |  | > 100 µM |  | > 100 µM |  |  |  | > 100 µM | > 100 µM | 
O=C(c1ccc(Nc2nccc(NCCCCNc3ccnc4cc(Cl)ccc34)n2)cc1)N1CCCCC1 | 1.33 µM | 2.82 µM | 1.01 µM | 2.42 µM | 2.36 µM | 8.31 µM | 1.31 µM | 6.57 µM | 2.63 µM | 8.74 µM | 3.89 µM | 21.1 µM | 0.475 µM | 2.98 µM | 1.8 µM | 4.62 µM | 0.999 µM | 4.44 µM |  | 

— PubChem BioAssay (NCI)
